Data published in patent publication US20200017467A1, “NOVEL TRIAZOLE DERIVATIVES” (BAYER CROPSCIENCE AKTIENGESELLSCHAFT, priority 2017, published 2020).

Tests used:
[1] = Log P by HPLC on reversed phase columns (EEC directive 79/831 Annex V.A8); assay type: physicochemical; details: reversed phase HPLC columns; method [a]: LC-UV, acidic range, 0.1% formic acid in water and acetonitrile; compounds of formula (I)
Procedure: Log P values: Measurement of Log P values was performed according to EEC directive 79/831 Annex V.A8 by HPLC (High Performance Liquid Chromatography) on reversed phase columns with the following methods: • ^[a] Log P value is determined by measurement of LC-UV, in an acidic range, with 0.1% formic acid in water and acetonitrile as eluent (linear gradient from 10% acetonitrile to 95% acetonitrile). • ^[b] Log P value is determined by measurement of LC-UV, in a neutral range, with 0.001 molar ammonium acetate solution in water and acetonitrile as eluent (linear gradient from 10% acetonitrile to 95% acetonitrile). • ^[c] Log P value is determined by measurement of LC-UV, in an acidic range, with 0.1% phosphoric acid and acetonitrile as eluent (linear gradient from 10% acetonitrile to 95% acetonitrile). If more than one Log P value is available within the same method, all the values are given and separated by “+”. Calibration was done with straight-chain alkan2-ones (with 3 to 16 carbon atoms) with known Log P values (measurement of Log P values using retention times with linear interpolation between successive alkanones). Lambda-max-values were determined using UV-spectra from 200 nm to 400 nm and the peak values of the chromatographic signals.

Puccinia recondita = assay: In vivo preventive test on Puccinia recondita (brown rust on wheat); details: 264 h, 500 ppm of active ingredient, preventive spray, evaluated 11 days after inoculation, read-out: efficacy
Procedure: (§1) Example A: In Vivo Preventive Test on Puccinia recondita (Brown Rust on Wheat) [table] The active ingredients were made soluble and homogenized in a mixture of dimethyl sulfoxide/acetone//Tween® 80 and then diluted in water to the desired concentration. Young plants of wheat were treated by spraying the active ingredient prepared as described above. Control plants were treated only with an aqueous solution of acetone/dimethyl sulfoxide/Tween® 80. After 24 hours, the plants were contaminated by spraying the leaves with an aqueous suspension of Puccinia recondita spores. The contaminated wheat plants were incubated for 24 hours at 20° C. and at 100% relative humidity and then for 10 days at 20° C. and at 70-80% relative humidity. The test was evaluated 11 days after the inoculation. 0% means an efficacy which corresponds to that of the control plants while an efficacy of 100% means that no disease was observed.

Uromyces appendiculatus = assay: In vivo preventive test on Uromyces appendiculatus (bean rust); details: 264 h, 500 ppm of active ingredient, preventive spray, evaluated 11 days after inoculation, read-out: efficacy
Procedure: as §1, with “D:” for “A:”, “Uromyces appendiculatus (Bean Rust)” for “Puccinia recondita (Brown Rust on Wheat)”, “bean” for “wheat”, “Uromyces appendiculatus” for “Puccinia recondita”

Septoria tritici = assay: Example F-B: in vivo curative Septoria tritici test (wheat); details: Zymoseptoria tritici, 504 h, sprayed 48 hours after inoculation, evaluated 21 days after inoculation, read-out: Efficacy in % Example F-B
Procedure: Example F: In Vivo Septoria tritici Test (Wheat); Comparison of Pyridinyloxy-Pyridyl Compounds According to the Invention Vs. Compounds Known from WO-A 2010/146116 [table] To produce a suitable preparation of active compound, 1 part by weight of active compound or active compound combination is mixed with the stated amounts of solvent and emulsifier, and the concentrate is diluted with water to the desired concentration. Example F-B: In Vivo Curative Septoria tritici Test (Wheat) To test for curative activity, young plants are inoculated with a spore suspension of Septoria tritici and remain for 48 hours in an incubation cabinet at a temperature of approximately 20° C. and a relative atmospheric humidity of approximately 100%. 48 hours after the incubation, the plants are sprayed with the preparation of active compound or active compound combination at the stated rate of application. After application the plants remain for 60 hours at a temperature of approximately 15° C. in a translucent incubation cabinet at a relative atmospheric humidity of approximately 100%. Afterwards, the plants are placed in the greenhouse at a temperature of approximately 15° C. and a relative atmospheric humidity of approximately 80%. The test is evaluated 21 days after the inoculation. 0% means an efficacy which corresponds to that of the untreated control, while an efficacy of 100% means that no disease is observed.

chromatographic logP [1]	SMILES	pest or weed control at 500 ppm (Puccinia recondita) [%]	pest or weed control at 500 ppm (Uromyces appendiculatus) [%]	pest or weed control at 500 ppm (Septoria tritici) [%]
2.21	CC(O)(Cn1cncn1)c1ccc(Oc2ccc(Cl)nc2)nc1C(F)(F)F (stereo not shown) [I-05]	80 to 89	90 to 100	100
2.25	CC(O)(Cn1cncn1)c1ccc(Oc2ccc(Br)nc2)nc1C(F)(F)F (stereo not shown) [I-01, 2-[6-[(6-bromo-3-pyridyl)oxy]-2-(trifluoromethyl)-3-pyridyl]-1-(1,2,4-triazol-1-yl)propan-2-ol]	90 to 100	80 to 89	93
2.56	CC(O)(Cn1cncn1)c1ccc(Oc2ccc(C(F)(F)F)nc2)nc1C(F)(F)F (stereo not shown) [I-02, 1-(1,2,4-triazol-1-yl)-2-[2-(trifluoromethyl)-6-[[6-(trifluoromethyl)-3-pyridyl]oxy]-3-pyridyl]propan-2-ol]	80 to 89	90 to 100	100

Further lines, the molecule ahead of its results:

SMILES	chromatographic logP [1]	pest or weed control at 500 ppm (Puccinia recondita) [%]	pest or weed control at 500 ppm (Uromyces appendiculatus) [%]	pest or weed control at 500 ppm (Septoria tritici) [%]
CC(O)(Cn1cncn1)c1cnc(Oc2ccc(Br)nc2)cc1C(F)(F)F (stereo not shown) [I-07]	2.3	80 to 89	70 to 79	70
OC(Cn1cncn1)c1cnc(Oc2ccc(Br)nc2)cc1C(F)(F)F (stereo not shown) [I-13]	2.13	90 to 100	–	60
OC(Cn1cncn1)c1ccc(Oc2ccc(C(F)(F)F)nc2)nc1C(F)(F)F (stereo not shown) [I-09]	2.2	90 to 100	90 to 100	86
CC(O)(Cn1cncn1)c1cnc(Oc2ccc(Cl)nc2)cc1C(F)(F)F (stereo not shown) [I-06, 2-[6-[(6-chloro-3-pyridyl)oxy]-4-(trifluoromethyl)-3-pyridyl]-1-(1,2,4-triazol-1-yl)propan-2-ol]	2.18	90 to 100	90 to 100	100
CC(O)(Cn1cncn1)c1cnc(Oc2ccc(C(F)(F)F)nc2)cc1C(F)(F)F (stereo not shown) [I-04]	2.53	90 to 100	90 to 100	100
